According to patent EP3570868B1, “[…] ANTIMICROBIAL PEPTIDES AND THEIR APPLICATIONS FOR THE TREATMENT AND PREVENTION OF MUSCU[…]” (Ustav Organicke Chemie a Biochemie AV CR, v.v.i., priority 2017, dated 2018):
Peptide text beside a SMILES is read from it.

Columns and labels:
Bacillus subtilis = assay type: cell-based; conditions: B.s.; 37° C for 20 h
Experimental: (§1) Gram-positive bacteria (Bacillus subtilis, Staphylococcus aureus, Staphylococcus epidermidis and Enterococcus faecalis), Gram-negative bacteria (Escherichia coli and Pseudomonas aeruginosa) and the yeast (Candida albicans) were grown to exponential phase and then were diluted with fresh medium. BHI medium (Oxoid, Great Britain) was used for Enterococcus faecalis; YPD medium containing yeast extract, peptone and glucose was used for Candida albicans and LB medium (Sigma, Czech Republic) was used for the remaining microorganisms. Then the microorganisms were added to the solutions of the tested antimicrobial peptides in LB medium in multi-well plates, so that the final peptide concentration it the wells was in the range of 0.5 to 100 µmοl.1^-1. The plates were incubated at 37° C for 20 h while being continuously shaken in a Bioscreen C (Oy Growth Curves AB Ltd., Helsinki, Finland). Absorbance was measured at 540 nm every 15 min. Antimicrobial activity (Table 2) was determined as a quantitative minimum inhibitory concentration (MIC) by observing bacterial growth in the presence of different concentrations of tested peptides. In the experiments, ca 10^5 CFU of bacteria or candida per well were used. Tetracycline in a concentration range of 0.5 - 100 µmol.1^-1 was used as a standard.
(§2) Clinical isolates of bacteria were obtained from University Hospital in Motol, Prague, Czech Republic and from Liberec Regional Hospital, Czech Republic. Methicillin resistant Staphylococcus aureus (MRSA) 6271 and Pseudomonas aeruginosa 5482 were from the Czech National Collection of Type Cultures, the National Institute of Public Health, Prague, Czech Republic. Other bacteria were from the Czech Collection of Microorganisms, Brno, Czech Republic. Candida albicans came from the Faculty of Medicine, Palacky University, Olomouc, Czech Republic. Candida tropicalis ATCC 750 and Candida glabrata DSY 565 were obtained from the Institute of Physiology, Academy of Sciences of the Czech Republic.

Candida albicans = assay type: cell-based; conditions: C.a.; 37° C for 20 h
Experimental: as §1, §2

Escherichia coli = assay type: cell-based; conditions: E.c.; 37° C for 20 h
Experimental: as §1, §2

[1] = test system: MRSA (clin. isolate Liberec); assay type: cell-based, Staphylococcus aureus; conditions: 37° C for 20 h
Experimental: as §1, §2

[2] = test system: MRSA (clin. isolate Motol); assay type: cell-based, Staphylococcus aureus; conditions: 37° C for 20 h
Experimental: as §1, §2

MRSA 6271 [3] = assay type: cell-based, Staphylococcus aureus; conditions: 37° C for 20 h
Experimental: as §1, §2

[4] = test system: S.e. (clin. isolate Motol); assay type: cell-based, Staphylococcus epidermidis; conditions: 37° C for 20 h
Experimental: as §1, §2

[5] = test system: E.f. (clin. isolate Motol); assay type: cell-based, Enterococcus faecalis; conditions: 37° C for 20 h
Experimental: as §1, §2

[6] = test system: P.a. (clin. isolate Liberec); assay type: cell-based, Pseudomonas aeruginosa; conditions: 37° C for 20 h
Experimental: as §1, §2

P.a. 5482 = assay type: cell-based, Pseudomonas aeruginosa; conditions: 37° C for 20 h
Experimental: as §1, §2

human red blood cells = assay: Determination of haemolytic activity; assay type: cell-based; conditions: human red blood cells (5% v/v), 1 h at 37 °C; concentration for lysis of 50% of erythrocytes
Experimental: The peptides in the concentrations 2-400 µmol.1^-1 were incubated with the suspension of human red blood cells (5% v/v) for 1 h at 37 °C in a physiological solution at a final volume of 0.2 ml. The samples were then centrifuged for 5 min at 250 g. The absorbance of the supernatant was determined at 540 nm. 0.2% (v/v) TRITON X100 was used as a control for 100% haemolysis. Haemolytic activity is expressed as the peptide concentration required for lysis of 50% of human erythrocytes in the assay (LC50). Table 2. Antimicrobial and haemolytic activity of I up to XIII peptides and tetracycline.

[7] = test system: S. epidermidis (clin. isolate Motol); assay: Induced osteomyelitis model in femur heads: effect of peptides released from carrier on infection in the bone graft; assay type: cell-based; conditions: ChronOS (300 mg); 10 mg, separate holes; two days; carrier without peptide 1,2x10^5
Experimental: (§3) 3-4 holes of a diameter of 5 mm and a depth of 10 mm are drilled with a surgical spoon into a femur head under sterile conditions (spongy part of the bone in the resection site). Thereafter, this bone graft is put into a beaker of appropriate size and lined with sterile gauze squares. The gauze is moistened with sterile physiological saline to prevent drying of the bone. Then, suspension of multiplied microbes in an appropriate medium (50-100 µl) at a concentration of 10^7 to 10^9 CFU is sequentially applied to the prepared holes in the bone graft and allowed to incubate for 1-2 days. […] Beaker with the infected bone graft is covered with a sterile Petri dish. During the experiment, induced osteomyelitis models are kept protected from light at room temperature.
(§4) After the incubation, the infected holes in the bone are filled with a mixture of the local carrier, and a peptide selected from the series of peptides of formulae I to XIII or their specific enantiomers (Figure 1). For comparison, one of the holes is filled with the local carrier without peptide, or the carrier filled with antibiotic (vancomycin or gentamicin). A commercially available two-component material supplied by Synthes (Synthes GmbH, Switzerland) under the name ChronOS Inject was used as the carrier. Its solid component comprises a mixture of calcium phosphates CaHPO4.2H2O and Ca3(PO4)2 and additives, the liquid component is 0.5% (vol./vol.) solution of hyaluronic acid.
(§5) After two days, the filling is thoroughly removed with a surgical spoon and empty holes are wiped with moistened sterile cotton swab, which is then extracted into 400 µl physiological saline. The extract is diluted in a tenfold serial dilution and each diluted suspension is cultured on agar in Petri dishes; the culture is evaluated on the following day. […] The result of the peptide effect is also compared with the result of the effect of antibiotics. In some cases, microbiological examination of the bone tissue taken with a surgical spoon from a deeper area of the drilled holes is performed. […] Table 3. Evaluation of the effect of antimicrobial peptides released from the carrier on an infection in the bone graft. Effect of antimicrobial activity is expressed in the number of CFU (colony-forming units) in the infected hole after swabbing.

[8] = test system: MRSA (clin. isolate Liberec); assay: as above; assay type: cell-based, Staphylococcus aureus; conditions: ChronOS (200 mg); 10 mg, separate holes; two days; carrier without peptide 3,4x10^7
Experimental: as §3, §4, §5

MRSA 6271 [9] = assay: as above; assay type: cell-based, Staphylococcus aureus; conditions: ChronOS (200 mg), two days, carrier without peptide 7,0x10^7
Experimental: as §3, §4, §5

[10] = test system: MRSA (clin. isolate Motol); assay: Biofilm formation on the surface of a bone cement implant in femur heads; assay type: cell-based, Staphylococcus aureus; conditions: two days
Experimental: (§6) The resulting elastic paste is placed into a 2 ml plastic syringe (without needle) and pressed into the infected holes in the spongy part of the bone, where it polymerizes and hardens. For comparison, other similarly infected holes are filled with cement containing only an antibiotic or antimycotic agent. For comparison, a Vancogenx® cement (Tecresa S. p. A., Italy) is used, made from a mixture of a powdered polymer component containing vancomycin and gentamicin. The mixture in an amount of 125 mg is mixed with liquid monomer (50-60 µl) and then pressed into the openings as described above. In another embodiment, the cements are applied to uninfected holes, allowed to harden, and then microbes are pipetted into the hole excavated between implants. From there they penetrate through bone tissue and settle on the implants with consequent formation of biofilms.
(§7) After two days, implants are removed with metal spikes and tweezers, mechanically cleaned from debris of bone tissue, and washed four times with physiological saline (0.5 ml) in plastic tubes to remove any residual planktonic microbes or bone cells from their surface. The implants in closed tubes with 0.4 ml saline are then sonicated four times for 3 min with occasional shaking. The of microbial biofilm on the surface of the implant is thus disrupted and microbes are loosed into the physiological saline. […]

MRSA 6271 [11] = assay: as above; assay type: cell-based, Staphylococcus aureus; conditions: two days
Experimental: as §6
(§8) After two days, implants are removed with metal spikes and tweezers, mechanically cleaned from debris of bone tissue, and washed four times with physiological saline (0.5 ml) in plastic tubes to remove any residual planktonic microbes or bone cells from their surface. The implants in closed tubes with 0.4 ml saline are then sonicated four times for 3 min with occasional shaking. The of microbial biofilm on the surface of the implant is thus disrupted and microbes are loosed into the physiological saline. The resulting suspension is subsequently diluted using the tenfold serial dilution for culturing on agar.
(§9) Evaluation of the effect of antimicrobial peptides on the formation of microbial biofilm on the surface of the implant made of the bone cement.

[12] = test system: Enterococcus faecalis (clin. isolate Motol); assay: as above; assay type: cell-based; conditions: two days
Experimental: as §6, §7

P. aeruginosa 5482 = assay: as above; assay type: cell-based; conditions: two days
Experimental: (§10) The resulting elastic paste is placed into a 2 ml plastic syringe (without needle) and pressed into the infected holes in the spongy part of the bone, where it polymerizes and hardens. For comparison, other similarly infected holes are filled with cement containing only an antibiotic or antimycotic agent. […] The mixture in an amount of 125 mg is mixed with liquid monomer (50-60 µl) and then pressed into the openings as described above. In another embodiment, the cements are applied to uninfected holes, allowed to harden, and then microbes are pipetted into the hole excavated between implants. From there they penetrate through bone tissue and settle on the implants with consequent formation of biofilms.
(§11) After two days, implants are removed with metal spikes and tweezers, mechanically cleaned from debris of bone tissue, and washed four times with physiological saline (0.5 ml) in plastic tubes to remove any residual planktonic microbes or bone cells from their surface. The implants in closed tubes with 0.4 ml saline are then sonicated four times for 3 min with occasional shaking. The of microbial biofilm on the surface of the implant is thus disrupted and microbes are loosed into the physiological saline. The resulting suspension is subsequently diluted using the tenfold serial dilution for culturing on agar. […]

[13] = test system: P. aeruginosa (clin. isolate Liberec); assay: as above; assay type: cell-based; conditions: two days, cement without peptide N/A
Experimental: as §10, §11

[14] = test system: Candida tropicalis ATCC 750; assay: as above; assay type: cell-based; conditions: two days, cement without peptide 3.7x10^5
Experimental: as §10, §11

[15] = test system: Candida albicans (clin. isolate Olomouc); assay: as above; assay type: cell-based; conditions: two days, cement without peptide 6.0x10^3
Experimental: as §6, §8, §9

[16] = test system: S. aureus (clin. isolate Liberec); assay: Induced osteomyelitis model in femur heads: effect of peptides released from carrier on infection in the bone graft; assay type: cell-based; conditions: ChronOS (200 mg); 10 mg, separate holes; two days; carrier without peptide 3,9x10^6
Experimental: as §3, §4, §5

[17] = test system: MRSA (clin. isolate Liberec); assay: Biofilm formation on the surface of a bone cement implant in femur heads; assay type: cell-based, Staphylococcus aureus; conditions: two days, cement without peptide 8,8x10^3
Experimental: as §6, §7

[18] = test system: S. epidermidis (clin. isolate Motol); assay: as above; assay type: cell-based; conditions: two days, cement without peptide 4.0x10^6
Experimental: as §10, §11

[19] = cement without peptide 2.8x10^6

CC[C@H](C)[C@H](NC(=O)[C@H](CCCCN)NC(=O)[C@H](CCCCN)NC(=O)[C@H](CC(C)C)NC(=O)[C@H](CC(C)C)NC(=O)[C@H](CCCCN)NC(=O)[C@H](CCSC)NC(=O)[C@H](Cc1c[nH]c2ccccc12)NC(=O)[C@H](CCCCN)NC(=O)CN)C(=O)N[C@@H](CC(C)C)C(=O)N[C@@H](CCCCN)C(N)=O [III]
Antimicrobial activity MIC (Bacillus subtilis): 1,8 µmol.l^-1
Antimicrobial activity MIC (Candida albicans): 5,7 µmol.l^-1
Antimicrobial activity MIC (Escherichia coli): 9,0 µmol.l^-1
Antimicrobial activity MIC [1]: 3,6 µmol.l^-1
Antimicrobial activity MIC [2]: 5,7 µmol.l^-1
Antimicrobial activity MIC (MRSA 6271 [3]): 6,3 µmol.l^-1
Antimicrobial activity MIC [4]: 2,3 µmol.l^-1
Antimicrobial activity MIC [5]: 13,3 µmol.l^-1
Antimicrobial activity MIC [6]: 10,0 µmol.l^-1
Antimicrobial activity MIC (P.a. 5482): 2,8 µmol.l^-1
Hemolytic activity LC50 (human red blood cells): 339 µmol/L
CFU/hole [7]: 0 in all cases CFU/hole
CFU/hole [8]: 2,3x10^5 / 2,3x10^5 CFU/hole
CFU/hole (MRSA 6271 [9]; III (5 mg)): 1,9x10^2 CFU/hole
CFU/hole (MRSA 6271 [9]; III (10 mg)): 7,6x10^2 CFU/hole
CFU/implant ([10]; cement without peptide 3,4x10^5): 0 CFU/implant
CFU/implant (MRSA 6271 [11]; cement without peptide N/A, first experiment with III): 5.1 x 10^3 CFU/implant
CFU/implant (MRSA 6271 [11]; cement without peptide N/A, second experiment with III): 0 CFU/implant
CFU/implant [12, 19]: 0 CFU/implant
CFU/implant ([12]; cement without peptide 2.9x10^5): 0 CFU/implant
CFU/implant (P. aeruginosa 5482; [19]): 2.6x10^1 CFU/implant
CFU/implant [13]: 1.1x10^3 CFU/implant
CFU/implant [14]: 0 CFU/implant
CFU/implant [15]: 2 CFU/implant

CC[C@H](C)[C@H](NC(=O)[C@H](CCCCN)NC(=O)[C@H](CCCCN)NC(=O)[C@H](CC(C)C)NC(=O)[C@H](CC(C)C)NC(=O)[C@H](CCCCN)NC(=O)[C@H](CCSC)NC(=O)[C@H](Cc1c[nH]c2ccccc12)NC(=O)[C@@H](N)CCCCN)C(=O)N[C@@H](CC(C)C)C(=O)N[C@@H](CCCCN)C(N)=O [I] (H-KWMKLLKKILK-NH2)
Antimicrobial activity MIC (Bacillus subtilis): 2,3 µmol.l^-1
Antimicrobial activity MIC (Candida albicans): 9,5 µmol.l^-1
Antimicrobial activity MIC (Escherichia coli): 12,7 µmol.l^-1
Antimicrobial activity MIC [1]: 8,0 µmol.l^-1
Antimicrobial activity MIC [2]: 17,7 µmol.l^-1
Antimicrobial activity MIC (MRSA 6271 [3]): 13,5 µmol.l^-1
Antimicrobial activity MIC [4]: 3,2 µmol.l^-1
Antimicrobial activity MIC [5]: >100 µmol/L
Antimicrobial activity MIC [6]: 5,8 µmol.l^-1
Antimicrobial activity MIC (P.a. 5482): 2,9 µmol.l^-1
Hemolytic activity LC50 (human red blood cells): >400 µmol/L
CFU/hole [16]: 1,3x10^4 CFU/hole
CFU/hole [8]: 2,3x10^5 / 2,3x10^5 CFU/hole
CFU/implant ([10]; cement without peptide 2,6x10^6): 0 CFU/implant
CFU/implant [17]: 0 CFU/implant
CFU/implant (MRSA 6271 [11]; cement without peptide 1.1x10^6): 0 CFU/implant
CFU/implant [18]: 1,1x10^3 CFU/implant
CFU/implant (P. aeruginosa 5482; cement without peptide 6x10^5): 7.0x10^2 CFU/implant
CFU/implant [15]: 6.8x10^1 CFU/implant
